Publication PMC8836073, “Activatable Peptides for Rapid and Simple Visualization of Protease Activity Secreted in Living Cells” (International Journal of Molecular Sciences, 2022)

Columns and labels:
active MMP9 = target: T1, active MMP9 (Homo sapiens, UniProt P14780); assay: Fluorescent gel electrophoresis of peptide cleavage by active MMP9; type: biochemical; conditions: peptide final 50 μM, active MMP9 final 0.1 μg in 40 μL; 20 mM Tris-HCl, 5 mM CaCl2, 100 mM NaCl, pH 7.6; 120 min, 37 °C; 0.8% agarose gel, FITC fluorescence
T1 construct: active MMP2 (No. PF023), and active MMP9 (No. PF024) were purchased from Merck Millipore; purchased Merck Millipore PF024
T1 sequence (P14780 107-707 limits assumed): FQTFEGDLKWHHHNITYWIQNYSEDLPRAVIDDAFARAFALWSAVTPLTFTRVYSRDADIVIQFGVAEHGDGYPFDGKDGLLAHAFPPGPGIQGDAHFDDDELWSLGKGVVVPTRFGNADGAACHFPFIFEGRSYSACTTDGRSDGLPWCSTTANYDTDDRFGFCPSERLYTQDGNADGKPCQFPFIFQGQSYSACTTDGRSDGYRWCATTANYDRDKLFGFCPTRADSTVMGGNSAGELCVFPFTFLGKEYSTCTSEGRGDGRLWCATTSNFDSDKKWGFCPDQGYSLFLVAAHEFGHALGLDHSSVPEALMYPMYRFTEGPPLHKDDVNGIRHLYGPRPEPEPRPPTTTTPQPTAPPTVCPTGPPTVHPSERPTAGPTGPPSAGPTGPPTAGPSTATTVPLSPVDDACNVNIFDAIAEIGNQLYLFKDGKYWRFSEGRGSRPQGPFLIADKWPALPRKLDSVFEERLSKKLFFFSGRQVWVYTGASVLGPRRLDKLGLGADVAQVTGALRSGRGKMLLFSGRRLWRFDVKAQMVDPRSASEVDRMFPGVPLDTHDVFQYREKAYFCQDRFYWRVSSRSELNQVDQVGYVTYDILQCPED
Experimental: (§1) Fluorescent gel electrophoresis was performed on 0.8% agarose gel at 50 V for 60 min. The agarose gel was cast and run using 0.5 × TB buffer. For the protease assay, Pep1 or Pep2 (1 μL at 2 mM, final 50 μM) was mixed with active MMP2 or active MMP9 (1 μL, final 0.1 μg) at a final volume of 40 μL in standard reaction buffer (20 mM Tris-HCl containing 5 mM CaCl2 and 100 mM NaCl, pH 7.6). The reactants were incubated in a tube for 120 min at 37 °C to induce the enzyme reaction, and 30 μL of the solution were loaded onto the agarose gel. As a control, a solution of Pep1 or Pep 2 (1 μL at 2 mM) without enzymes was resuspended in a reaction buffer (for a total of 40 μL), and the aliquot (30 μL) was used in gel electrophoresis. The fluorescent image of the agarose was captured using a home-built transilluminator equipped with a blue light-emitting diode lamp. The original image underwent a pseudo-color imaging process using an image-editing function in Microsoft PowerPoint 365.

active MMP2 = target: T2, active MMP2 (Homo sapiens, UniProt P08253); assay: Fluorescent gel electrophoresis of peptide cleavage by active MMP2; type: biochemical; conditions: peptide final 50 μM, active MMP2 final 0.1 μg in 40 μL; 20 mM Tris-HCl, 5 mM CaCl2, 100 mM NaCl, pH 7.6; 120 min, 37 °C; 0.8% agarose gel, FITC fluorescence
T2 construct: active MMP2 (No. PF023), and active MMP9 (No. PF024) were purchased from Merck Millipore; purchased Merck Millipore PF023
T2 sequence (P08253 110-660): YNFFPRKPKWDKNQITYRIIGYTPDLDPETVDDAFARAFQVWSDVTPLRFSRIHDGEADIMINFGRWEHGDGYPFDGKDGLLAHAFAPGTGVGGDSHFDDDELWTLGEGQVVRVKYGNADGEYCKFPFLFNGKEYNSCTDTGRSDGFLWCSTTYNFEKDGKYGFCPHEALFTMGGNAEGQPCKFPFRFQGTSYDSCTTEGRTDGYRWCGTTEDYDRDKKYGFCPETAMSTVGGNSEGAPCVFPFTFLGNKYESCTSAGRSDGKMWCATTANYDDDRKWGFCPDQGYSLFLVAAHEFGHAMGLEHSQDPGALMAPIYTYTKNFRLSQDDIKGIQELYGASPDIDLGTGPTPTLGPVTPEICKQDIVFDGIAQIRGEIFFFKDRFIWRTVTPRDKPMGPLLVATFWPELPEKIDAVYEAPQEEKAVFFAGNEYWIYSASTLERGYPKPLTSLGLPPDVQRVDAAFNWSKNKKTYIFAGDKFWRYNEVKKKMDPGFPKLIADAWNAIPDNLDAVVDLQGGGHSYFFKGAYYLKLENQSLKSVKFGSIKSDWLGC
Experimental: as §1

[1] = tested on: HT-1080 cells (MMP2-positive); assay: Live cell confocal imaging of peptide uptake in HT-1080 cells; type: cell-based, Human; conditions: for intracellular fluorescence (confocal images, FITC channel): HT-1080, peptide final 10 μM in serum-free CM, 2 h after treatment
Experimental: (§2) For live cell imaging, HT-1080 or HT-29 cells were cultured in Lab-Tek II chambered coverglass (Thermo Fisher Scientific) containers in RPMI-1640 media containing 10% FBS and 1× P/S at 37 °C. When the cells were 80% confluent, the culture medium was rinsed and changed to a fresh serum-free medium, followed by the addition of peptide probes at a final concentration of 10 μM. For organelle images, nuclei and lysosomes (or late endosomes) were stained with NucBlue (1 drop) and Lysotracker Red (50 nM) in serum-free media, respectively, and incubated in the dark for 10 min. After washing of the cells and removal of the chamber, cells adhering to the coverglass were subjected to bright-field or fluorescent images using a confocal microscope (Nikon C2si+, Japan). The excitation/emission wavelengths of NucBlue, FITC, and Lysotracker Red were 352/454 nm, 488/525 nm, and 577/590 nm, respectively. Typically, images were collected using a pixel dwell time of 10.3 μs on a 512 × 512 pixel image with 1 mW light power at the objective through a pinhole (60 μm) to reach the PMT. The frame rate was rather slow; the frame rate was about 0.255 FPS (frame per second) for a 512 × 512 frame (i.e., 1 frame per 3.9 s). To gain time-lapse images for FITC in living cells, one video file was constructed with images taken every 20 s for 30 min. Imaging analysis was performed using the NIS-Elements microscope imaging software (Ver 2.0).

[2] = tested on: HT-29 cells (MMP2-negative); assay: Live cell confocal imaging of peptide uptake in HT-29 cells; type: cell-based, Human
Experimental: as §2, with “Imaging analysis was performed using the NIS-Elements microscope imaging software (Ver 2.0).” left out

HeLa cells = assay: Peptide uptake in HeLa cells; type: cell-based; conditions: unlike HT-1080 cells
[3] = FITC fluorescence; no reference given; cited from earlier work
Experimental: Figure 4A,B were nearly identical to the images obtained at 2 h in Figure 3A,B, respectively. […] There was no signi ...

[4] = target: T3, MMP2 secreted by HT-1080 cells (Homo sapiens, UniProt P08253); assay: Pep1 intracellular fluorescence in HT-1080 cells with MMP2 inhibitor; type: cell-based; conditions: HT-1080, Pep1 final 10 μM, MMP2 inhibitor (Figure S3)
T3 construct: endogenous in cells; host or cells: HT-1080 human fibrosarcoma cells
T3 sequence (P08253 110-660): T2 sequence (P08253 110-660)
Experimental: as §2, with “Imaging analysis was performed using the NIS-Elements microscope imaging software (Ver 2.0).” left out

Row | Compound | cleavage by active MMP9 (fluorescent band shift on agarose gel) (active MMP9) | cleavage by active MMP2 (fluorescent band shift on agarose gel) (active MMP2) | intracellular fluorescence (confocal images, FITC channel) ([1]; 37 °C) | uptake by HeLa cells (HeLa cells) | also measured
1 | EEEEGGIPVSLRSGGGRRRRK-FITC [Pep1] | less effective than that by MMP2 | strong fluorescent band shift | strong fluorescence images |  | cellular uptake ([1]; HT-1080 cells, 30 min, percentage of FITC-stained cells over total cells): 40~60%; time-lapse signal intensity (0 to 30 min) ([1]; living HT-1080, peptide final 10 μM, 37 °C, compared to Pep2, triplicate experiments): increased even after just 5 min; intracellular fluorescence (confocal images, FITC channel) ([2]; HT-29, peptide final 10 μM in serum-free CM, 2 h after treatment, 37 °C): No significant fluorescence images; time-lapse fluorescence (30 min) ([2]; living HT-29, Pep1 final 10 μM, 30 min): no significant increase
2 | LRSGGG-R4-FITC [cleaved Pep1, fluorescent fragment of Pep1 after MMP2 cleavage] |  |  |  | did not take up | 
3 | fluorescein isothiocyanate [FITC] |  |  |  |  | pKa [3]: 6.5
4 | O=C(O)[C@@H](Cc1ccccc1)NS(=O)(=O)c1ccc(-c2ccccc2)cc1 [MMP2 inhibitor, (2R)-2-[(4-biphenylylsulfonyl)amino]-3-phenylpropionic acid] |  |  |  |  | effect on intracellular fluorescence intensity of Pep1 [4]: significantly reduced
5 | GGIPVSLRSGGGRRRRK-FITC [Pep3, FITC-labeled positive control peptide without E4] |  |  | strong fluorescence images | did not take up | 
6 | EEEEGGRRRRK-FITC [Pep2] | did not show any fluorescent band shifts | did not show any fluorescent band shifts | No significant fluorescence images |  | 
